Test results reported in patent US10550117B2, “2-azabicyclo[3.1.0]hexan-3-one derivatives and methods of use” (Genentech, Inc., priority 2016, dated 2020).

Experiments:
[1] = tested on: p52 (NF-kB2) nuclear translocation in HeLa cells; test: p52 HeLa nuclear translocation assay (anti-lymphotoxin beta receptor antibody stimulated); assay type: cell-based; settings: Homo sapiens, 100 ng/mL anti-lymphotoxin beta receptor antibody
Protocol: (§1) (3) A third set of cell assays are used to define the selectivity of NIK inhibitors toward inhibition of classical vs. non-classical NF-kB signaling and rely on quantification of the nuclear translocation of p52 (NF-kB2) and REL-A (p65) using high content cellular imaging. For the p52 (non-classical NF-kB signaling) nuclear translocation assay, HeLa cells are treated with different concentrations of compounds (0.2% DMSO final) in medium containing 10% fetal bovine serum and then stimulated with 100 ng/mL of an anti-lymphotoxin beta receptor antibody (R&D Systems) for 5 hours. In the REL-A nuclear translocation assay, HeLa cells are incubated with compounds (0.2% DMSO final) for 4.5 hours in medium containing 10% fetal bovine serum before stimulating them with 10 ng/mL tumor necrosis factor (TNF)-α (R&D Systems) for 30 minutes. Cells are fixed with 4% paraformaldehyde, permeabilized by adding 0.1% Triton X-100 in phosphate buffered saline, and then are incubated with either 2 μg/mL anti-p52 antibody (Millipore) or 400 ng/mL anti-REL-A (p65) antibody (Santa Cruz Biotechnology). Finally, the cells are incubated with an Alexa488-labeled secondary antibody (Invitrogen) and DRAQ5 DNA stain (Biostatus). Imaging is carried out using an Opera reader (Perkin Elmer) and data are analyzed with the aid of Acapella software (Perkin Elmer). The p52 or REL-A translocation into the nucleus is quantified by the ratio of the nuclear to cytoplasmic signal intensity. […] The test compounds have the corresponding inhibitory values (IC50) for NIK REL-A (p65) and p52 Translocation Assays as set forth in Table B2.

[2] = tested on: REL-A (p65) nuclear translocation in HUVEC; test: REL-A HUVEC nuclear translocation assay (TNF-α stimulated, high content imaging); assay type: cell-based; settings: Homo sapiens, 2 ng/mL TNF-α
Protocol: (§2) (2) A second set of cell assays used primary human umbilical vein cells (HUVEC) sourced from Lonza to define the selectivity of NIK inhibitors toward inhibition of classical vs. non-classical NF-kB signaling using high content cellular imaging. For the p52 (non-classical NF-kB signaling) nuclear translocation assay, HUVEC were treated with different concentrations of compounds (0.2% DMSO final) in EBM-2 medium (LONZA) containing 2% fetal bovine serum and then stimulated with 300 ng/mL of an anti-lymphotoxin beta receptor antibody (R&D Systems) for 4.5 hours. In the REL-A nuclear translocation assay, HUVEC were incubated with compounds (0.2% DMSO final) for 4 hours 50 minutes in EBM-2 medium containing 2% fetal bovine serum before stimulating them with 2 ng/mL tumor necrosis factor (TNF)-α (R&D Systems) for 10 minutes. Cells were fixed with 4% paraformaldehyde, permeabilized by adding 0.1% Triton X-100 in phosphate buffered saline, and then were incubated with either 2 μg/mL anti-p52 antibody (Millipore) or 400 ng/mL anti-REL-A (p65) antibody (Santa Cruz Biotechnology). Finally, the cells were incubated with an Alexa488-labeled secondary antibody (Invitrogen) and DRAQ5 DNA stain (Biostatus). Imaging was carried out using an Opera reader (Perkin Elmer) and data were analyzed with the aid of Acapella software (Perkin Elmer). The p52 or REL-A translocation into the nucleus was quantified by the ratio of the nuclear to cytoplasmic signal intensity.

[3] = tested on: REL-A (p65) nuclear translocation in HeLa cells; test: REL-A HeLa nuclear translocation assay (TNF-α stimulated, high content imaging); assay type: cell-based; settings: Homo sapiens, 10 ng/mL TNF-α
Protocol: as §1

[4] = target: nuclear factor-kappa B (NF-kB)-inducing kinase (NIK) (Homo sapiens (Human), UniProt Q99558); test: NIK enzyme inhibition assay (Transcreener ADP fluorescence polarization); assay type: biochemical; settings: for Ki: purified NIK 0.5 nM, 10 μM ATP, Morrison equation, read-out: NIK ADP-FP Ki; for NIK enzyme inhibition, potency in words relative to the other stereoisomers: stereoisomers separated by chiral SFC, qualitative
Protocol: The ability of the nuclear factor-kappa B (NF-kB)-inducing kinase (NIK) to catalyze the hydrolysis of adenosine-5′-triphosphate (ATP) was monitored using the Transcreener ADP (adenosine-5′-diphosphate) assay (BellBrook Labs). […] Reactions were quenched by the addition of 20 mM 2,2′,2″,2′″-(ethane-1,2-diyldinitrilo)tetraacetic acid and 0.01% Brij 35. The tracer bound to the antibody was displaced by the ADP generated during the NIK reaction, which causes a decrease in fluorescence polarization that was measured by laser excitation at 633 nm with a Fluorescence Correlation Spectroscopy Plus reader (Evotec AG). Equilibrium dissociation constant (Ki) values for NIK inhibitors are calculated from plots of activity vs. inhibitor concentration using Morrison's quadratic equation that accounts for the potential of tight binding, and by also applying the conversion factor that accounted for competitive inhibition and the concentration of substrate used in the assay relative to its Michaelis constant (Km).

Hepatocyte stability = assay type: in vitro ADME; settings: human hepatocytes; for stability in the human hepatocyte assay versus the corresponding pyrrolidinone comparator compound: qualitative comparison
Protocol: General. Metabolic stability assays in hepatocytes are conducted using cryopreserved pooled female CD-1 mouse, male Sprague-Dawley rat, male beagle dog, male cynomolgus monkey, and mixed male and female human hepatocytes (CellzDirect). Vials of hepatocytes are thawed rapidly in a water bath set at 37° C. and then are diluted with Dulbecco's modified Eagle's medium (DMEM), pH 7.4. Cells are isolated by centrifugation, pooled, and resuspended in DMEM at 1.0 million viable cells/ml. Membrane integrity of the cells is assessed by trypan blue exclusion. The test compound is dissolved in dimethyl sulfoxide at a final concentration of 10 mM. This test compound stock is diluted further to 2 μM in DMEM (125 μl) before the addition of an equal volume of the 10^6 cells/ml cell suspension. The test compound (final incubation concentration of 1.0 μM with 0.1% dimethyl sulfoxide) and cells (final concentration of 0.5×10^6 cells/ml) are incubated at 37° C. in a 95% air/5% CO2 atmosphere for 3 h. Aliquots (50 μl) are removed at 0, 1, 2, and 3 hours and added to termination mixtures (100 μl) containing acetonitrile and an internal standard. The samples are then centrifuged for 10 min at 2000 g. The supernatant (90 μl) is removed, combined with 180 μl of water, and analyzed by LC-MS/MS.
Metabolic stability of the test compounds were evaluated also in human hepatocytes, following protocols described in Hallifax, et al. Drug Metabol. Disposition, 2005, 33:1852-1858.

[5] = Liver microsome stability; assay type: in vitro ADME; settings: for HLM CL (human liver microsome clearance): human liver microsomes; for stability in human liver microsomes versus the corresponding pyrrolidinone comparator compound: qualitative comparison
Protocol: Metabolic stability assays in liver microsomes are conducted with pooled female CD-1 mouse, male Sprague-Dawley rat, male beagle dog, male cynomolgus monkey, and mixed male and female human liver microsomal incubations. The general assay conditions are as follows. Incubation mixtures consisted of liver microsomes (0.5 mg of microsomal protein/ml) and the test compound (1.0 μM) with or without NADPH (1.0 mM) in the potassium phosphate buffer (100 mM; pH 7.4) with a final incubation volume of 0.25 ml. Reactions are initiated by the addition of NADPH or buffer and shaken in a water bath open to the air at 37° C. At times 0, 20, 40, and 60 min, aliquots (50 μl) are removed and added to termination mixtures (100 μl) containing acetonitrile and an internal standard. The samples are then centrifuged for 10 min at 2000 g. The supernatant (90 μl) is removed, combined with 180 μl of water, and analyzed by LC-MS/MS.
Metabolic stability of the test compounds were evaluated in human liver microsomes following known protocols described in Halladay, et al. Drug Metabol. Lett. 2007, 1:67-72.

[6] = tested on: p52 (non-classical NF-kB signaling) nuclear translocation in HUVEC; test: p52 HUVEC nuclear translocation assay (anti-lymphotoxin beta receptor antibody stimulated); assay type: cell-based; settings: Homo sapiens, 300 ng/mL anti-lymphotoxin beta receptor antibody
Protocol: as §2

nuclear factor-kappa B (NF-kB)-inducing kinase (NIK), sequence (Q99558 whole entry): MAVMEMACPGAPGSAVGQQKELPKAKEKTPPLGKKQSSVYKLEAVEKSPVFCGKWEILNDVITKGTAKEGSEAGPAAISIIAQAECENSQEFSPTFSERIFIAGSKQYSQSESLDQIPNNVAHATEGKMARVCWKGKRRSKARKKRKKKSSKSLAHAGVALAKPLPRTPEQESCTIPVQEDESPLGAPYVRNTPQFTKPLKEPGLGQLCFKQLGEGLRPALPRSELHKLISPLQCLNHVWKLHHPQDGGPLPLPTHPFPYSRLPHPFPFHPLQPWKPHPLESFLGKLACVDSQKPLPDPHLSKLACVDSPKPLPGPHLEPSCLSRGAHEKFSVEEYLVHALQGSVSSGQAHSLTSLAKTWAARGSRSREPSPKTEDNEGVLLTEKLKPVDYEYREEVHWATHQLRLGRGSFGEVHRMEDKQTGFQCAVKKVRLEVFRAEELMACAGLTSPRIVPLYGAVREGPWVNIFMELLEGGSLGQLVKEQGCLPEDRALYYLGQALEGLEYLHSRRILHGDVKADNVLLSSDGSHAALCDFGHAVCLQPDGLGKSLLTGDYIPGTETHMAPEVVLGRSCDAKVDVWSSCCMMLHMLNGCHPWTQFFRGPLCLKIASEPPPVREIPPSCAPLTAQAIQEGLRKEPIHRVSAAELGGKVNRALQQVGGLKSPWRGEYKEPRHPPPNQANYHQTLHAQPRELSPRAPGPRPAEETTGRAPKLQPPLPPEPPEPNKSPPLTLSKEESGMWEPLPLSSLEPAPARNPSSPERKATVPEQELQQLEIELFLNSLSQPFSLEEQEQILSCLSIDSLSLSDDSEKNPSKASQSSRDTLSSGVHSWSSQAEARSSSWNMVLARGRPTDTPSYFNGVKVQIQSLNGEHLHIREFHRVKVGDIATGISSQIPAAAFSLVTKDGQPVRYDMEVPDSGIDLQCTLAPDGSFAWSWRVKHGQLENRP

SMILES	IC50 [1] [nM]	IC50 [2] [nM]	IC50 [3] [nM]	Ki [4] [nM]	NIK enzyme inhibition, potency in words relative to the other stereoisomers [4]	Hep CL (human hepatocyte clearance) (Hepatocyte stability) [mL/min/kg]	stability in the human hepatocyte assay versus the corresponding pyrrolidinone comparator compound (Hepatocyte stability)	HLM CL (human liver microsome clearance) [5] [mL/min/kg]	stability in human liver microsomes versus the corresponding pyrrolidinone comparator compound [5]	IC50 [6] [nM]
CN1CC[C@@](O)(C#Cc2cccc(-c3nc(C(N)=O)n4ccccc34)c2)C1=O [Compound C-3]	29.8	> 5000	> 20000							
CN1C(=O)[C@](O)(C#Cc2cccc(-c3nc(C(N)=O)c4ccccn34)c2)[C@H]2C[C@H]21 [Compound 5, 3-(3-(((1R,4R,5S)-4-hydroxy-2-methyl-3-oxo-2-azabicyclo[3.1.0]hexan-4-yl)ethynyl)phenyl)imidazo[1,5-a]pyridine-1-carboxamide]		> 5000		4.7	most potent NIK enzyme inhibitor among the 4 stereoisomers	1.6	better stability	3.5	better stability	3000
CN1C(=O)[C@](O)(C#Cc2cccc(-c3nc(C(N)=O)n4ccccc34)c2)[C@H]2C[C@H]21 [Compound 3]		> 5000				9.0	better stability	11	better stability	25
COc1ccn2c(C(N)=O)nc(-c3cccc(C#C[C@]4(O)CCN(C)C4=O)c3)c2c1 [Compound C-4, reference compound]	6.6	> 5000	> 1000			9.9		15		
CN1C(=O)[C@](O)(C#Cc2cccc(-n3nc(C(N)=O)c4cccnc43)c2)[C@@H]2C[C@@H]21 [Compound 2, 1-(3-(((1S,4R,5R)-4-hydroxy-2-methyl-3-oxo-2-azabicyclo[3.1.0]hexan-4-yl)ethynyl)phenyl)-1H-pyrazolo[3,4-b]pyridine-3-carboxamide]		> 5000		4.3	second most potent NIK enzyme inhibitor among the 4 stereoisomers	13		7.7		280
CN1C(=O)[C@](O)(C#Cc2cccc(-n3nc(C(N)=O)c4cccnc43)c2)[C@H]2C[C@H]21 [Compound 1, 1-(3-(((1R,4R,5S)-4-hydroxy-2-methyl-3-oxo-2-azabicyclo[3.1.0]hexan-4-yl)ethynyl)phenyl)-1H-pyrazolo[3,4-b]pyridine-3-carboxamide]		> 5000		0.88	most potent NIK enzyme inhibitor among the 4 stereoisomers	0.8	better stability	5.8	better stability	55
